Experimental data reported in patent publication US20250304985A1, “Genetically Engineered Plants for Increased Production of Vindoline” (Northeastern University, priority 2022, published 2025).

Columns and labels:
Assay type in all cases: in vivo, Catharanthus roseus
CrLHCB2.2 = experiment: Paclobutrazol treatment of etiolated seedlings: CrLHCB2.2 expression by qPCR (positive control); conditions: 1 μM PAC, dark-grown seedlings, 4 days, vs DMSO mock; normalized to SAND
Method: (§1) Because PAC might disrupt germination, seedlings were first germinated normally without any treatment by incubating them in the dark for 5 days at 27° C. The germinated seeds were then transferred to either media containing 1 μM PAC or media containing an equal volume of DMSO as a mock treatment. These seedlings were kept in the dark for 4 more days before being harvested for gene expression analysis.
This is consistent with GA's positive role in growth and served as a good indicator that the PAC was having an effect on the seedlings. As a positive control, expression of CrLHCB2.2 was measured; CrLHCB2.2 is a homologue of the light harvesting complex subunit B 2.2, which was previously shown to be activated by PAC treatment of dark-grown seedlings in A. thaliana.
Gene expression levels were monitored using quantitative real-time PCR (qRT-PCR) with primers listed in Table 1. mRNA was extracted from liquid nitrogen flash-frozen leaf tissue or seedlings stored at −80° C. […] Ct values for each biological replicate were calculated as the average of two technical replicates. Transcript levels were normalized to the housekeeping gene, SAND [76], and fold changes relative to the negative control condition were calculated according to the […]. Amplification efficiency for each primer set was confirmed using Ct values over a range of cDNA dilutions and was 100%±10% for each gene monitored. […]

[1] = system: vindoline pathway gene expression; experiment: Paclobutrazol treatment of etiolated seedlings: vindoline pathway gene expression by qPCR; conditions: 1 μM PAC, dark-grown seedlings, 4 days, vs DMSO mock
Method: as §1
Gene expression levels were monitored using quantitative real-time PCR (qRT-PCR) with primers listed in Table 1. mRNA was extracted from liquid nitrogen flash-frozen leaf tissue or seedlings stored at −80° C. While still frozen, tissue was crushed by shaking in a Mini-BeadBeater-16 (Biospec) for 15 seconds with ten 3 mm glass beads (Fisher). Afterwards, RNA was extracted with RNAzol-RT (Molecular Research Center) and the Direct-zol RNA Miniprep Plus Kit (Zymo Research) with on-column DNAse treatment to remove genomic DNA. RNA integrity was assessed using agarose gel electrophoresis, and concentration and purity were quantified with a NanoDrop (ND-1000 Spectrophotometer; ThermoScientific). cDNA was synthesized using either the SuperScript II First-Strand Synthesis System (Invitrogen) or the LunaScript RT SuperMix Kit (New England Biolabs) with up to 2.5 μg of RNA, according to manufacturer's instructions. cDNA was diluted 1:4, and 1 μL was used in a 10 μL reaction with SYBR Green ROX qPCR Master Mix (Qiagen or ABClonal) and 300 nM primers on the MX3000P qPCR instrument (Agilent) using the thermocycler protocol previously described with an extension time of 30 seconds. Ct values for each biological replicate were calculated as the average of two technical replicates. Transcript levels were normalized to the housekeeping gene, SAND [76], and fold changes relative to the negative control condition were calculated according to the […]. Amplification efficiency for each primer set was confirmed using Ct values over a range of cDNA dilutions and was 100%±10% for each gene monitored. Specificity of the primers were confirmed by gel electrophoresis and sequencing. SAND Ct values in no reverse-transcriptase controls were confirmed to be at least 5 Ct values above the respective experimental sample, indicating minimal genomic DNA contamination.
C. roseus var. Little Bright Eye seeds (NESeeds, 0.8 g) were sterilized by submersion in 4% Plant Preservative Mixture (PPM) for 18 hours in the dark. The PPM was then decanted, and the seeds were spread on full-strength Gamborg's media (3.1 g/L Gamborg's basal salts, 1× Gamborg's vitamins, and 6% micropropagation agar type 1, Phytotechnology Laboratory) inside a sterile Magenta™ Plant Culture Box (Sigma) for germination. Seeds were germinated in the dark at 27° C. for 5 days until the radicle of the seedling had just emerged. A 100 mM stock solution of paclobutrazol (PAC, PhytoTechnology Laboratories) was prepared with DMSO as the solvent, filter-sterilized, and stored at −20° C. until use. A final concentration of 1 μM PAC or an equivalent amount of DMSO (mock) was added to Gamborg's media after autoclaving. After germination, seedlings were sterilely transferred to a new Magenta™ Box containing Gamborg's media containing 1 μM PAC or DMSO. Seedlings were maintained in the dark at 27° C. for 4 days, and then were harvested by placing 3 whole seedlings in a 2 mL screw cap tube containing ten 3 mm glass beads for each biological replicate, flash-freezing in liquid nitrogen, and storing at −80° C. until ready for RNA extraction and qPCR analysis.

[2] = system: CrDELLA1 and CrDELLA2 transcript levels; experiment: Paclobutrazol treatment of etiolated seedlings: DELLA transcript levels by qPCR; conditions: 1 μM PAC, dark-grown seedlings, 4 days, vs DMSO mock
Method: as §1
Gene expression levels were monitored using quantitative real-time PCR (qRT-PCR) with primers listed in Table 1. mRNA was extracted from liquid nitrogen flash-frozen leaf tissue or seedlings stored at −80° C. […] RNA integrity was assessed using agarose gel electrophoresis, and concentration and purity were quantified with a NanoDrop (ND-1000 Spectrophotometer; ThermoScientific). cDNA was synthesized using either the SuperScript II First-Strand Synthesis System (Invitrogen) or the LunaScript RT SuperMix Kit (New England Biolabs) with up to 2.5 μg of RNA, according to manufacturer's instructions. cDNA was diluted 1:4, and 1 μL was used in a 10 μL reaction with SYBR Green ROX qPCR Master Mix (Qiagen or ABClonal) and 300 nM primers on the MX3000P qPCR instrument (Agilent) using the thermocycler protocol previously described with an extension time of 30 seconds. Ct values for each biological replicate were calculated as the average of two technical replicates. […]

C. roseus seedlings = experiment: Paclobutrazol treatment of etiolated seedlings: seedling height; conditions: 1 μM PAC, dark-grown seedlings, 4 days, vs DMSO mock
Method: as §1
Seedlings treated with PAC were photographed and lengths were measured with ImageJ. Statistical significance for all phenotype measurements was analyzed with a two-tailed unpaired T-test.
C. roseus var. Little Bright Eye seeds (NESeeds, 0.8 g) were sterilized by submersion in 4% Plant Preservative Mixture (PPM) for 18 hours in the dark. The PPM was then decanted, and the seeds were spread on full-strength Gamborg's media (3.1 g/L Gamborg's basal salts, 1× Gamborg's vitamins, and 6% micropropagation agar type 1, Phytotechnology Laboratory) inside a sterile Magenta™ Plant Culture Box (Sigma) for germination. […] Seedlings were maintained in the dark at 27° C. for 4 days, and then were harvested by placing 3 whole seedlings in a 2 mL screw cap tube containing ten 3 mm glass beads for each biological replicate, flash-freezing in liquid nitrogen, and storing at −80° C. until ready for RNA extraction and qPCR analysis.

## CC(C)(C)[C@@H](O)[C@@H](Cc1ccc(Cl)cc1)n1cncn1 (racemic) [PAC, paclobutrazol]
CrLHCB2.2
  activation of CrLHCB2.2 expression: > 2 fold
[1]
  D4H gene expression: significant decrease
  T16H2 gene expression: no effect
[1]; not statistically significant
  activation of DAT gene expression: approximately 50%
  activation of NMT gene expression: approximately 50%
  activation of T3O gene expression: approximately 50%
  activation of T3R gene expression: approximately 50%
[1]; statistically significant
  activation of 16OMT gene expression: approximately 50%
[2]
  CrDELLA1 expression: significantly decreased expression
  CrDELLA2 expression: significantly decreased expression
C. roseus seedlings
  seedling height: significant decrease
